≈ marks a conversion by molar mass, not a printed value.
How the values were obtained:
[1] = biological target: T1, Protein-glutamine gamma-glutamyltransferase (Homo sapiens, UniProt P21980); assay: Inhibition of TG2 (unknown origin)
T1 sequence (P21980 whole entry): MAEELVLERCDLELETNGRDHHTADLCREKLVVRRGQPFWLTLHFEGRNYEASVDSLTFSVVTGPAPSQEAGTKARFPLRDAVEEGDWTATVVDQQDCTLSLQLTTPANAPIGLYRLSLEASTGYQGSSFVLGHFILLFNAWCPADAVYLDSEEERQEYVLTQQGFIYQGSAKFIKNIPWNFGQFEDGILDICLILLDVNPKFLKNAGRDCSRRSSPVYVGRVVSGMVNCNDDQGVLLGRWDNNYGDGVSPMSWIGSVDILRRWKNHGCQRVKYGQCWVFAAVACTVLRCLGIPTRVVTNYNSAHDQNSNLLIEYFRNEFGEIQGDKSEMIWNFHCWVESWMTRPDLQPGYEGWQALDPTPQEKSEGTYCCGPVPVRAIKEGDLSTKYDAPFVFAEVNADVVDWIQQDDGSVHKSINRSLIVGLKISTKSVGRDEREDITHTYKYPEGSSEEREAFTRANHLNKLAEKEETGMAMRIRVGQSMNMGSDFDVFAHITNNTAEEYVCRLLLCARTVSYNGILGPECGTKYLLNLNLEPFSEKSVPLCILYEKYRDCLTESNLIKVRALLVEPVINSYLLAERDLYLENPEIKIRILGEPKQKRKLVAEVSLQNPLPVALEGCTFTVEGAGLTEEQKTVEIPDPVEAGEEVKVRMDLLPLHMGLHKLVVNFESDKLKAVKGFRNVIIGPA

in vivo = details: mouse, po
[2] = Solubility of the compound; type: physicochemical

IC50 [1]	bioavailability (in vivo)	solubility [2]	Structure (SMILES)
62 nM			C=CC(=O)NCCCCC(NC(=O)OCc1ccccc1)C(=O)N1CCN(c2ccccc2Cl)CC1 (stereo not drawn)
	68%	58 µg/mL (≈ 158 µM)	O=c1cc(N2CCOCC2)cc(N2CCCCC[C@@H]2Cc2ccccc2)[nH]1

From ChEMBL document CHEMBL5223149, “The Emerging Landscape of Small-Molecule Therapeutics for the Treatment of Huntington's Disease” (J Med Chem, 2022)
